In patent EP4748837A1, “AROMATIC AMIDE DERIVATIVE, AND PREPARATION METHOD THEREFOR AND USE THEREOF” (Zhejiang Hisun Pharmaceutical Co., Ltd., priority 2023, dated 2025):

How the values were obtained:
HT-29 cells = assay: Inhibition of HT-29 cell proliferation (CellTiter-Glo cell viability); assay type: cell-based; conditions: Homo sapiens; HT-29 cells (TP53 R273H mutation), 120 hours culture with compound; read-out: IC50
Protocol: (§1) Influences of the compounds of the present invention on HT-29 cell proliferation were determined by the following method. HT-29 cells (containing TP53 R273H mutation) were purchased from the Cell Bank of Shanghai Institute of Biochemistry and Cell Biology, Chinese Academy of Sciences, and cultured in a McCOY's 5A culture medium containing 10% fetal bovine serum, 100 U penicillin and 100 µg/mL streptomycin. A cell viability was determined by a CellTiter-Glo® Luminescent Cell Viability Assay kit (Promega, article number G7573).
(§2) An experimental method was operated according to steps in the instruction of the kit, which was briefly described as follows: a test compound was dissolved in DMSO first to prepare a 10 mM stock solution, then the stock solution was diluted with the culture medium to prepare a test sample, and a final concentration of the compound was in a range of 1000 nM-0.015 nM. Cells in a logarithmic growth phase were inoculated into a 96-well cell culture plate at a density of 1000 cells per well, cultured in a 5% CO2 incubator at 37°C overnight, and then the test compound was added to continuously culture for 120 hours. After the culture was ended, 50 uL of CellTiter-Glo detection solution was added to each well, shaken for 5 minutes, and then allowed to stand for 10 minutes, and subsequently, a luminance value of each well of the sample was read by a microplate reader in a Luminescence mode. By comparing with the numerical value of a control group (0.3% DMSO), a percentage inhibition rate of the compound at each concentration point was calculated, and then nonlinear regression analysis was carried out based on concentration logarithm-inhibition rate of the compound in GraphPad Prism 5 software, so as to obtain an IC50 value of the compound for inhibiting the cell proliferation, which was as shown in Table 2. Table 2 IC50 data of the compounds of the present invention for inhibiting HT-29 cell proliferation

OVCAR-3 cells = assay: Inhibition of OVCAR-3 cell proliferation (CellTiter-Glo cell viability); assay type: cell-based; conditions: Homo sapiens; OVCAR-3 cells (TP53 R248Q mutation), 72 hours culture with compound; read-out: IC50
Protocol: as §1, with “OVCAR-3” for “HT-29”, “R248Q” for “R273H”, “an RPMI 1640” for “a McCOY's 5A”
as §2, with “for 72” for “for 120”, “each well ,” for “each well,”, “Table 1.” for “Table 2.”, “Table 1” for “Table 2”, “inhibiting OVCAR-3” for “inhibiting HT-29”

**Q.** What does the source list for `[2H]C([2H])([2H])Oc1ccc(NC(=O)c2ccc(NS(=O)(=O)CC)cc2N2CCC3(CC2)CC3)cc1N1CCC(F)(F)CC1` [Example 57, N-(3-(4,4-difluoropiperidin-1-yl)-4-(methoxy-d3)phenyl)-4-(ethylsulfonamido)-2-(6-azaspiro[2.5]octan-6-yl)benzamide]?
**A.** IC50 (HT-29 cells): 4.5 nM; IC50 (OVCAR-3 cells): 8.7 nM

**Q.** How did the IC50 (HT-29 cells) turn out when `CCS(=O)(=O)Nc1ccc(C(=O)Nc2ccc(-n3ccnc3)c(C3=CCC(F)(F)CC3)c2)c(N2CCC3(CC2)CC3)c1` [Example 22, N-(4',4'-difluoro-6-(1H-imidazol-1-yl)-2',3',4',5'-tetrahydro-[1,1'-biphenyl]-3-yl)-4-(ethylsulfonamido)-2-(6-azaspiro[2. 5]octan-6-yl)benzamide] was run?
**A.** Its IC50 is 16.8 nM.

**Q.** What about the IC50 (OVCAR-3 cells) of the same compound?
**A.** Its IC50 is 19.9 nM.

**Q.** What does the source list for `O=C(Nc1ccc(-n2ccnn2)c(N2CCC(F)(F)CC2)c1)c1ccc(NS(=O)(=O)C2CC2)cc1N1CCC2(CC1)CC2` [Example 32, 4-(cyclopropanesulfonamido)-N-(3-(4,4-difluoropiperidin-1-yl)-4-(1H-1,2,3-triazol-1-yl)phenyl)-2-(6-azaspiro[2.5]octan-6-yl)benzamide]?
**A.** IC50 (HT-29 cells): 4.7 nM; IC50 (OVCAR-3 cells): 5.9 nM

**Q.** `CCS(=O)(=O)Nc1ccc(C(=O)Nc2ccc(-c3cnccn3)c(N3CCC(F)(F)CC3)c2)c(N2CCC3(CC2)CC3)c1` [Example 11, N-(3-(4,4-difluoropiperidin-1-yl)-4-(pyrazin-2-yl)phenyl)-4-(ethylsulfonamido)-2-(6-azaspiro[2.5]octan-6-yl)benzamide] was tested. Which IC50 (HT-29 cells) did it give?
**A.** The IC50 was 16.3 nM.

**Q.** And the IC50 (OVCAR-3 cells)?
**A.** The IC50 was 17.7 nM.

**Q.** What does the source list for `CCS(=O)(=O)Nc1ccc(C(=O)Nc2ccc(-c3nnn(C)n3)c(N3CCC(F)(F)CC3)c2)c(N2CCC3(CC2)CC3)c1` [Example 35, N-(3-(4,4-difluoropiperidin-1-yl)-4-(2-methyl-2H-tetrazol-5-yl)phenyl)-4-(ethylsulfonamido)-2-(6-azaspiro[2.5]octan-6-y 1)benzamide]?
**A.** IC50 (HT-29 cells): 6.2 nM; IC50 (OVCAR-3 cells): 11.1 nM

**Q.** `CCS(=O)(=O)Nc1ccc(C(=O)Nc2ccc(-c3ccncc3)c(N3CCC(F)(F)CC3)c2)c(N2CCC3(CC2)CC3)c1` [Example 8, N-(3-(4,4-difluoropiperidin-1-yl)-4-(pyridin-4-yl)phenyl)-4-(ethylsulfonamido)-2-(6-azaspiro[2.5]octan-6-yl)benzamide] was tested. Which IC50 (OVCAR-3 cells) did it give?
**A.** Its IC50 is 21.2 nM.

**Q.** How did the IC50 (OVCAR-3 cells) turn out when `CCS(=O)(=O)Nc1ccc(C(=O)Nc2ccc(Oc3ccccn3)c(N3CCC(F)(F)CC3)c2)c(N2CCC3(CC2)CC3)c1` [Example 55, N-(3-(4,4-difluoropiperidin-1-yl)-4-(pyridin-2-yloxy)phenyl) -4-(ethylsulfonamido)-2-(6-azaspiro[2.5]octan-6-yl)benzamide] was run?
**A.** The IC50 was 44.7 nM.

**Q.** `CCS(=O)(=O)Nc1ccc(C(=O)Nc2ccc(C(C)=O)c(N3CCC(F)(F)CC3)c2)c(N2CCC3(CC2)CC3)c1` [Example 5, N-(4-acetyl-3-(4,4-difluoropiperidin-1-yl)phenyl)-4-(ethylsulfonamido)-2-(6-azaspiro[2.5]octan-6-yl)benzamide] was tested. Which IC50 (OVCAR-3 cells) did it give?
**A.** Its IC50 is 33.1 nM.

**Q.** For `CCS(=O)(=O)Nc1ccc(C(=O)Nc2ccc(-c3ncn(C)n3)c(NC3CC(F)(F)C3)c2)c(N2CCC3(CC2)CC3)c1` [Example 54, N-(3-((3,3-difluorocyclobutyl)amino)-4-(1-methyl-1H-1,2,4-triazol-3-yl)phenyl)-4-(ethylsulfonamido)-2-(6-azaspiro[2.5]octan-6-yl)benzamide], which IC50 (OVCAR-3 cells) is on record?
**A.** The IC50 was 38.9 nM.

**Q.** Which IC50 (HT-29 cells) does the source give for `CCS(=O)(=O)Nc1ccc(C(=O)Nc2ccc(C(=O)NC)c(N3CCC(F)(F)CC3)c2)c(N2CCC3(CC2)CC3)c1` [Example 3, 2-(4,4-difluoropiperidin-1-yl)-4-(4-(ethylsulfonamido)-2-(6-azaspiro[2.5]octan-6-yl)benzamido)-N-methylbenzamide] here?
**A.** The IC50 was 4 nM.

**Q.** And the IC50 (OVCAR-3 cells)?
**A.** The IC50 was 3.7 nM.

**Q.** `CCS(=O)(=O)Nc1ccc(C(=O)Nc2ccc(-c3ncco3)c(OC3CC(F)(F)C3)c2)c(N2CCC3(CC2)CC3)c1` [Example 23, N-(3-(3,3-difluorocyclobutoxy)-4-(oxazol-2-yl)phenyl)-4-(ethylsulfonamido)-2-(6-azaspiro [2.5]octan-6-yl)benzamide] was tested. Which IC50 (OVCAR-3 cells) did it give?
**A.** Its IC50 is 51.3 nM.

**Q.** For `CCS(=O)(=O)Nc1ccc(C(=O)Nc2ccc(-c3ccon3)c(N3CCC(F)(F)CC3)c2)c(N2CCC3(CC2)CC3)c1` [Example 36, N-(3-(4,4-difluoropiperidin-1-yl)-4-(isoxazol-3-yl)phenyl)-4-(ethylsulfonamido)-2-(6-azaspiro[2.5]octan-6-yl)benzamide], which IC50 (HT-29 cells) is on record?
**A.** Its IC50 is 9.3 nM.

**Q.** What about the IC50 (OVCAR-3 cells) of the same compound?
**A.** The IC50 was 11.1 nM.

**Q.** `CCS(=O)(=O)Nc1ccc(C(=O)Nc2ccc(-c3ccccn3)c(N3CCC(F)(F)CC3)c2)c(N2CCC3(CC2)CC3)c1` [Example 10, N-(3-(4,4-difluoropiperidin-1-yl)-4-(pyridin-2-yl)phenyl)-4-(ethylsulfonamido)-2-(6-azaspiro[2.5]octan-6-yl)benzamide] was tested. Which IC50 (HT-29 cells) did it give?
**A.** The IC50 was 27.1 nM.

**Q.** What about the IC50 (OVCAR-3 cells) of the same compound?
**A.** The IC50 was 17.3 nM.

**Q.** With `CCS(=O)(=O)Nc1ccc(C(=O)Nc2ccc(-c3ncnn3C)c(N3CCC(F)(F)CC3)c2)c(N2CCC3(CC2)CC3)c1` [Example 38, N-(3-(4,4-difluoropiperidin-1-yl)-4-(1-methyl-1H-1,2,4-triazol-5-yl)phenyl)-4-(ethylsulfon amido)-2-(6-azaspiro[2.5]octan-6-yl)benzamide] as the compound, how does the IC50 (OVCAR-3 cells) read?
**A.** The IC50 was 27.1 nM.

**Q.** What does the source list for `CCS(=O)(=O)Nc1ccc(C(=O)Nc2ccc(-c3cccnc3)c(N3CCC(F)(F)CC3)c2)c(N2CCC3(CC2)CC3)c1` [Example 9, N-(3-(4,4-difluoropiperidin-1-yl)-4-(pyridin-3-yl)phenyl)-4-(ethylsulfonamido)-2-(6-azaspiro[2.5]octan-6-yl)benzamide]?
**A.** IC50 (HT-29 cells): 14.5 nM; IC50 (OVCAR-3 cells): 15.2 nM

**Q.** With `CCS(=O)(=O)Nc1ccc(C(=O)Nc2ccc(-c3ncco3)c(N3CCC(F)(F)CC3)c2)c(N2CCC3(CC2)CC3)c1` [Example 7, N-(3-(4,4-difluoropiperidin-1-yl)-4-(oxazol-2-yl)phenyl)-4-(ethylsulfonamido)-2-(6-azaspiro[2.5]octan-6-yl)benzamide] as the compound, how does the IC50 (HT-29 cells) read?
**A.** The IC50 was 18.3 nM.

**Q.** What about the IC50 (OVCAR-3 cells) of the same compound?
**A.** Its IC50 is 11.1 nM.

**Q.** For `CCS(=O)(=O)Nc1ccc(C(=O)Nc2ccc(-n3ccnc3)c(OC3CC(F)(F)C3)c2)c(N2CCC3(CC2)CC3)c1` [Example 24, N-(3-(3,3-difluorocyclobutoxy)-4-(1H-imidazol-1-yl)phenyl) -4-(ethylsulfonamido)-2-(6-azaspiro[2.5]octan-6-yl)benzamide], which IC50 (OVCAR-3 cells) is on record?
**A.** The IC50 was 17.6 nM.

**Q.** With `CCS(=O)(=O)Nc1ccc(C(=O)Nc2ccc(-c3nnco3)c(N3CCC(F)(F)CC3)c2)c(N2CCC3(CC2)CC3)c1` [Example 40, N-(3-(4,4-difluoropiperidin-1-yl)-4-(1,3,4-oxadiazol-2-yl)phenyl)-4-(ethylsulfonamido)-2-(6-azaspiro[2.5]octan-6-yl)benz amide] as the compound, how does the IC50 (HT-29 cells) read?
**A.** The IC50 was 8.2 nM.

**Q.** What about the IC50 (OVCAR-3 cells) of the same compound?
**A.** The IC50 was 6 nM.

**Q.** How did the IC50 (HT-29 cells) turn out when `CCS(=O)(=O)Nc1ccc(C(=O)Nc2ccc(CO)c(N3CCC(F)(F)CC3)c2)c(N2CCC3(CC2)CC3)c1` [Example 6, N-(3-(4,4-difluoropiperidin-1-yl)-4-(hydroxymethyl)phenyl)-4-(ethylsulfonamido)-2-(6-azaspiro[2.5]octan-6-yl)benzamide] was run?
**A.** Its IC50 is 13.3 nM.

**Q.** What about the IC50 (OVCAR-3 cells) of the same compound?
**A.** The IC50 was 11.1 nM.

**Q.** With `CCS(=O)(=O)Nc1ccc(C(=O)Nc2ccc(C(N)=O)c(N3CCC(F)(F)CC3)c2)c(N2CCC3(CC2)CC3)c1` [Example 1, N-(4-carbamoyl-3-(4,4-difluor opiperidin-1-yl)phenyl)-4-(ethylsulfonamido)-2-(6-azaspiro[2.5]octan-6-yl)benzamide] as the compound, how does the IC50 (HT-29 cells) read?
**A.** The IC50 was 10.2 nM.

**Q.** And the IC50 (OVCAR-3 cells)?
**A.** The IC50 was 16.5 nM.

**Q.** For `CCS(=O)(=O)Nc1ccc(C(=O)Nc2ccc(C(=O)N(C)C)c(N3CCC(F)(F)CC3)c2)c(N2CCC3(CC2)CC3)c1` [Example 4, 2-(4,4-difluoropiperidin-1-yl)-4-(4-(ethylsulfonamido)-2-(6-azaspiro[2.5]octan-6-yl)benzamido)-N,N-dimethylbenzamide], which IC50 (OVCAR-3 cells) is on record?
**A.** The IC50 was 18.9 nM.
